Experimental data: PubChem BioAssay (NCI)
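Assay format: 96-well plates, 48-hour exposure. GI50 = concentration required for 50% inhibition of growth. At the TGI there is no net growth.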

Key:
Test in all cases: NCI anticancer screen, dose series, 48 h
SK-OV-3 ovarian = system: SK-OV-3 ovarian
BT-549 breast = system: BT-549 breast
786-0 renal = system: 786-0 renal
DU-145 prostate = system: DU-145 prostate
U251 CNS = system: U251 CNS
SNB-75 CNS = system: SNB-75 CNS
SF-295 CNS = system: SF-295 CNS
HOP-62 NSCLC = system: HOP-62 NSCLC
UACC-62 melanoma = system: UACC-62 melanoma
SF-539 CNS = system: SF-539 CNS
SNB-19 CNS = system: SNB-19 CNS
MCF7 breast = system: MCF7 breast
LOX IMVI melanoma = system: LOX IMVI melanoma
RPMI-8226 leukemia = system: RPMI-8226 leukemia
TK-10 renal = system: TK-10 renal
SW-620 colon = system: SW-620 colon
ACHN renal = system: ACHN renal
EKVX NSCLC = system: EKVX NSCLC
NCI-H460 lung = system: NCI-H460 lung
A549 NSCLC = system: A549 NSCLC
MDA-MB-231 breast = system: MDA-MB-231 breast
RXF 393 renal = system: RXF 393 renal
IGROV1 ovarian = system: IGROV1 ovarian
KM12 colon = system: KM12 colon
SK-MEL-5 melanoma = system: SK-MEL-5 melanoma
HL-60(TB) leukemia = system: HL-60(TB) leukemia
MOLT-4 leukemia = system: MOLT-4 leukemia
PC-3 prostate = system: PC-3 prostate
NCI-H23 lung = system: NCI-H23 lung
UACC-257 melanoma = system: UACC-257 melanoma
COLO 205 colon = system: COLO 205 colon
MALME-3M melanoma = system: MALME-3M melanoma
K-562 leukemia = system: K-562 leukemia
UO-31 renal = system: UO-31 renal
SF-268 CNS = system: SF-268 CNS
HCT-116 colon = system: HCT-116 colon
OVCAR-3 ovarian = system: OVCAR-3 ovarian
OVCAR-5 ovarian = system: OVCAR-5 ovarian
OVCAR-8 ovarian = system: OVCAR-8 ovarian
HS 578T breast = system: HS 578T breast
SK-MEL-28 melanoma = system: SK-MEL-28 melanoma
OVCAR-4 ovarian = system: OVCAR-4 ovarian
CAKI-1 renal = system: CAKI-1 renal
SN12C renal = system: SN12C renal
MDA-MB-435 = system: MDA-MB-435
HCC-2998 colon = system: HCC-2998 colon
HOP-92 NSCLC = system: HOP-92 NSCLC
HT29 colon = system: HT29 colon
NCI-H226 lung = system: NCI-H226 lung
CCRF-CEM leukemia = system: CCRF-CEM leukemia
NCI-H522 lung = system: NCI-H522 lung
A498 renal = system: A498 renal
M14 melanoma = system: M14 melanoma
SK-MEL-2 melanoma = system: SK-MEL-2 melanoma
NCI/ADR-RES ovarian = system: NCI/ADR-RES ovarian
HCT-15 colon = system: HCT-15 colon
T-47D breast = system: T-47D breast
SR leukemia = system: SR leukemia

In the case of `COc1ccc(/C=C/C(=O)c2cc3c(N)c(C(=O)Nc4cccc(Cl)c4C)sc3nc2C)cc1`, the GI50 (SK-OV-3 ovarian) is reported as 300 nM, the TGI (SK-OV-3 ovarian) is reported as > 50000 nM and the GI50 (BT-549 breast) is reported as 606 nM. For the same molecule, the TGI (BT-549 breast) was 4250 nM, the GI50 (786-0 renal) was 411 nM and the TGI (786-0 renal) was > 13600 nM. The GI50 (DU-145 prostate) was 218 nM, the TGI (DU-145 prostate) was > 50000 nM and the GI50 (U251 CNS) was 201 nM. For the same molecule, the TGI (U251 CNS) was 4360 nM, the GI50 (SNB-75 CNS) was 147 nM and the GI50 (SF-295 CNS) was 295 nM. For the same molecule, the TGI (SF-295 CNS) was > 50000 nM, the GI50 (HOP-62 NSCLC) was 288 nM and the TGI (HOP-62 NSCLC) was > 50000 nM. For the same molecule, the GI50 (UACC-62 melanoma) was 267 nM, the TGI (UACC-62 melanoma) was > 50000 nM and the GI50 (SF-539 CNS) was 122 nM. For the same molecule, the TGI (SF-539 CNS) was 324 nM, the GI50 (SNB-19 CNS) was 262 nM and the TGI (SNB-19 CNS) was > 50000 nM. The GI50 (MCF7 breast) was 196 nM, the TGI (MCF7 breast) was > 50000 nM and the GI50 (LOX IMVI melanoma) was 243 nM. It also gave a TGI (LOX IMVI melanoma) of 1250 nM, a GI50 (RPMI-8226 leukemia) of 187 nM and a TGI (RPMI-8226 leukemia) of 1490 nM. The GI50 (TK-10 renal) was 965 nM, the TGI (TK-10 renal) was > 50000 nM and the GI50 (SW-620 colon) was 219 nM. For the same molecule, the TGI (SW-620 colon) was > 50000 nM, the GI50 (ACHN renal) was 330 nM and the TGI (ACHN renal) was > 50000 nM. The GI50 (EKVX NSCLC) was 384 nM, the TGI (EKVX NSCLC) was > 50000 nM and the GI50 (NCI-H460 lung) was 190 nM. The TGI (NCI-H460 lung) was 5040 nM, the GI50 (A549 NSCLC) was 261 nM and the TGI (A549 NSCLC) was > 50000 nM. The GI50 (MDA-MB-231 breast) was 327 nM, the TGI (MDA-MB-231 breast) was > 50000 nM and the GI50 (RXF 393 renal) was 102 nM. For the same molecule, the TGI (RXF 393 renal) was 324 nM, the GI50 (IGROV1 ovarian) was 251 nM and the TGI (IGROV1 ovarian) was > 50000 nM. For the same molecule, the GI50 (KM12 colon) was 214 nM, the TGI (KM12 colon) was 6820 nM and the GI50 (SK-MEL-5 melanoma) was 192 nM. For the same molecule, the TGI (SK-MEL-5 melanoma) was 881 nM, the GI50 (HL-60(TB) leukemia) was 140 nM and the TGI (HL-60(TB) leukemia) was 460 nM. The GI50 (MOLT-4 leukemia) was 312 nM, the TGI (MOLT-4 leukemia) was > 50000 nM and the GI50 (PC-3 prostate) was 209 nM. For the same molecule, the TGI (PC-3 prostate) was > 50000 nM, the GI50 (NCI-H23 lung) was 206 nM and the GI50 (UACC-257 melanoma) was 6000 nM. For the same molecule, the TGI (UACC-257 melanoma) was > 50000 nM, the GI50 (COLO 205 colon) was 169 nM and the TGI (COLO 205 colon) was 751 nM. For the same molecule, the GI50 (MALME-3M melanoma) was 1250 nM, the TGI (MALME-3M melanoma) was > 50000 nM and the GI50 (K-562 leukemia) was 181 nM. The TGI (K-562 leukemia) was > 50000 nM, the GI50 (UO-31 renal) was 406 nM and the TGI (UO-31 renal) was > 25600 nM. For the same molecule, the GI50 (SF-268 CNS) was 680 nM, the TGI (SF-268 CNS) was > 50000 nM and the GI50 (HCT-116 colon) was 188 nM. For the same molecule, the GI50 (OVCAR-3 ovarian) was 160 nM, the TGI (OVCAR-3 ovarian) was 842 nM and the GI50 (OVCAR-5 ovarian) was 350 nM. The TGI (OVCAR-5 ovarian) was > 50000 nM, the GI50 (OVCAR-8 ovarian) was 244 nM and the TGI (OVCAR-8 ovarian) was > 50000 nM. For the same molecule, the GI50 (HS 578T breast) was 173 nM, the TGI (HS 578T breast) was > 50000 nM and the GI50 (SK-MEL-28 melanoma) was 6100 nM. For the same molecule, the TGI (SK-MEL-28 melanoma) was > 50000 nM, the GI50 (OVCAR-4 ovarian) was 732 nM and the TGI (OVCAR-4 ovarian) was > 50000 nM. For the same molecule, the GI50 (CAKI-1 renal) was 284 nM, the TGI (CAKI-1 renal) was > 26700 nM and the GI50 (SN12C renal) was 362 nM. The TGI (SN12C renal) was > 50000 nM, the GI50 (MDA-MB-435) was 90.8 nM and the TGI (MDA-MB-435) was 258 nM. For the same molecule, the GI50 (HCC-2998 colon) was 350 nM, the TGI (HCC-2998 colon) was 2920 nM and the GI50 (HOP-92 NSCLC) was 876 nM. For the same molecule, the TGI (HOP-92 NSCLC) was 10600 nM, the GI50 (HT29 colon) was 170 nM and the TGI (HT29 colon) was > 50000 nM. For the same molecule, the GI50 (NCI-H226 lung) was 372 nM, the TGI (NCI-H226 lung) was 4750 nM and the GI50 (CCRF-CEM leukemia) was 205 nM. For the same molecule, the TGI (CCRF-CEM leukemia) was > 35300 nM, the GI50 (NCI-H522 lung) was 126 nM and the GI50 (A498 renal) was 174 nM. For the same molecule, the TGI (A498 renal) was 781 nM, the GI50 (M14 melanoma) was 146 nM and the TGI (M14 melanoma) was > 50000 nM. For the same molecule, the GI50 (SK-MEL-2 melanoma) was 389 nM, the TGI (SK-MEL-2 melanoma) was > 50000 nM and the GI50 (NCI/ADR-RES ovarian) was 127 nM. The TGI (NCI/ADR-RES ovarian) was 381 nM, the GI50 (HCT-15 colon) was 185 nM and the TGI (HCT-15 colon) was > 50000 nM. For the same molecule, the GI50 (T-47D breast) was 291 nM, the TGI (T-47D breast) was > 50000 nM and the GI50 (SR leukemia) was 196 nM. The TGI (SR leukemia) was > 50000 nM.
